{"source": "patent US20080269174A1", "about": "(priority 2005, published 2008)", "experiment_in_all_cases": "microbe, parasite or virus in culture", "type_in_all_cases": "cell-based", "key": {"Pyrenophora graminea": {"tested_on": "Pyrenophora graminea", "conditions": "for % activity observed: 72 hrs"}, "Fusarium graminearum": {"tested_on": "Fusarium graminearum", "conditions": "for % activity observed: 48 hrs"}, "Gaeumannomyces graminis": {"tested_on": "Gaeumannomyces graminis", "conditions": "for % activity observed: 72 hrs"}, "Ustilago nuda": {"tested_on": "Ustilago nuda"}, "Monographella nivalis": {"tested_on": "Monographella nivalis", "conditions": "for % activity observed: 72 hrs"}, "Pythium ultimum": {"tested_on": "Pythium ultimum"}, "Rhizoctonia solani": {"tested_on": "Rhizoctonia solani", "conditions": "72 h, read-out: % activity observed"}, "[1]": {"conditions": "Pyrenophora graminea, 72 h, read-out: % activity observed"}, "[2]": {"conditions": "Globisporangium ultimum, 48 h, read-out: % activity observed"}, "[3]": {"conditions": "Fusarium graminearum, 48 h, read-out: % activity observed, 10 ppm applied alone"}, "[4]": {"conditions": "Ustilago nuda, 48 h, read-out: % activity observed"}, "[5]": {"conditions": "Gaeumannomyces graminis, 72 h, read-out: % activity observed"}, "[6]": {"conditions": "Monographella nivalis, 72 h, read-out: % activity observed"}}, "note": "Values joined by “and” are separate entries in the source; they are usually repeats but may differ in a detail not shown here. Identical values can stand only once. Like-named read-outs stand apart in the source and are kept apart here.", "data": [{"smiles": "COCC(=O)N(c1c(C)cccc1C)[C@H](C)C(=O)OC", "note": "[Mefenoxam]", "values": [{"measurement": "% activity observed", "setting": "Pyrenophora graminea", "value": "0% and 5%"}, {"measurement": "% activity observed", "setting": "Fusarium graminearum; 0.014 ppm applied alone", "value": 6, "unit": "%"}, {"measurement": "% activity observed", "setting": "Fusarium graminearum; 0.041 ppm applied alone", "value": 0, "unit": "%"}, {"measurement": "% activity observed", "setting": "Fusarium graminearum; 0.123 ppm applied alone", "value": 0, "unit": "%"}, {"measurement": "% activity observed", "setting": "Fusarium graminearum; 0.370 ppm applied alone", "value": 0, "unit": "%"}, {"measurement": "% activity observed", "setting": "Fusarium graminearum; 1.111 ppm applied alone", "value": 0, "unit": "%"}, {"measurement": "% activity observed", "setting": "Fusarium graminearum; 3.333 ppm applied alone", "value": 2, "unit": "%"}, {"measurement": "% activity observed", "setting": "Fusarium graminearum; 10.000 ppm applied alone", "value": 1, "unit": "%"}, {"measurement": "% activity observed", "setting": "Gaeumannomyces graminis", "value": "0% and 4% and 3%"}, {"measurement": "% activity observed", "setting": "Ustilago nuda; 48 hrs", "value": "0% and 2% and 5% and 8%"}, {"measurement": "% activity observed", "setting": "Monographella nivalis", "value": 0, "unit": "%"}]}, {"smiles": "CC1COC(Cn2cncn2)(c2ccc(Oc3ccc(Cl)cc3)cc2Cl)O1", "note": "(stereo not shown) [Difenconazole, Difenoconazole]", "values": [{"measurement": "inhibition at 0.014 ppm", "setting": "Pyrenophora graminea; [1]", "value": 20, "unit": "%"}, {"measurement": "inhibition at 0.041 ppm", "setting": "Pyrenophora graminea; [1]", "value": 29, "unit": "%"}, {"measurement": "inhibition at 0.123 ppm", "setting": "Pyrenophora graminea; [1]", "value": 41, "unit": "%"}, {"measurement": "inhibition at 0.37 ppm", "setting": "Pyrenophora graminea; [1]", "value": 70, "unit": "%"}, {"measurement": "inhibition at 1.111 ppm", "setting": "Pyrenophora graminea; [1]", "value": 86, "unit": "%"}, {"measurement": "inhibition at 3.333 ppm", "setting": "Pyrenophora graminea; [1]", "value": 87, "unit": "%"}, {"measurement": "inhibition at 10 ppm", "setting": "Pyrenophora graminea; [1]", "value": 86, "unit": "%"}, {"measurement": "inhibition at 0.014 ppm", "setting": "Pythium ultimum; [2]", "value": 5, "unit": "%"}, {"measurement": "inhibition at 0.041 ppm", "setting": "Pythium ultimum; [2]", "value": 0, "unit": "%"}, {"measurement": "inhibition at 0.123 ppm", "setting": "Pythium ultimum; [2]", "value": 0, "unit": "%"}, {"measurement": "inhibition at 0.37 ppm", "setting": "Pythium ultimum; [2]", "value": 0, "unit": "%"}, {"measurement": "inhibition at 1.111 ppm", "setting": "Pythium ultimum; [2]", "value": 0, "unit": "%"}, {"measurement": "inhibition at 3.333 ppm", "setting": "Pythium ultimum; [2]", "value": 0, "unit": "%"}, {"measurement": "inhibition at 10 ppm", "setting": "Pythium ultimum; [2]", "value": 7, "unit": "%"}, {"measurement": "inhibition at 0.014 ppm", "setting": "Fusarium graminearum; Fusarium graminearum, 48 h, read-out: % activity observed, 0.014 ppm applied alone", "value": 8, "unit": "%"}, {"measurement": "inhibition at 0.041 ppm", "setting": "Fusarium graminearum; Fusarium graminearum, 48 h, read-out: % activity observed, 0.041 ppm applied alone", "value": 6, "unit": "%"}, {"measurement": "inhibition at 0.123 ppm", "setting": "Fusarium graminearum; Fusarium graminearum, 48 h, read-out: % activity observed, 0.123 ppm applied alone", "value": 14, "unit": "%"}, {"measurement": "inhibition at 0.37037 ppm", "setting": "Fusarium graminearum; Fusarium graminearum, 48 h, read-out: % activity observed, 0.3703704 ppm applied alone", "value": 16, "unit": "%"}, {"measurement": "inhibition at 1.11111 ppm", "setting": "Fusarium graminearum; Fusarium graminearum, 48 h, read-out: % activity observed, 1.1111111 ppm applied alone", "value": 34, "unit": "%"}, {"measurement": "inhibition at 3.33333 ppm", "setting": "Fusarium graminearum; Fusarium graminearum, 48 h, read-out: % activity observed, 3.3333333 ppm applied alone", "value": 73, "unit": "%"}, {"measurement": "inhibition at 10 ppm", "setting": "Fusarium graminearum; [3]", "value": 92, "unit": "%"}, {"measurement": "inhibition at 0.014 ppm", "setting": "Ustilago nuda; [4]", "value": 4, "unit": "%"}, {"measurement": "inhibition at 0.041 ppm", "setting": "Ustilago nuda; [4]", "value": 0, "unit": "%"}, {"measurement": "inhibition at 0.123 ppm", "setting": "Ustilago nuda; [4]", "value": 0, "unit": "%"}, {"measurement": "inhibition at 0.37 ppm", "setting": "Ustilago nuda; [4]", "value": 0, "unit": "%"}, {"measurement": "inhibition at 1.111 ppm", "setting": "Ustilago nuda; [4]", "value": 0, "unit": "%"}, {"measurement": "inhibition at 3.333 ppm", "setting": "Ustilago nuda; [4]", "value": 0, "unit": "%"}, {"measurement": "inhibition at 10 ppm", "setting": "Ustilago nuda; [4]", "value": 60, "unit": "%"}, {"measurement": "inhibition at 0.014 ppm", "setting": "Rhizoctonia solani", "value": 5, "unit": "%"}, {"measurement": "inhibition at 0.041 ppm", "setting": "Rhizoctonia solani", "value": 0, "unit": "%"}, {"measurement": "inhibition at 0.123 ppm", "setting": "Rhizoctonia solani", "value": 27, "unit": "%"}, {"measurement": "inhibition at 0.37 ppm", "setting": "Rhizoctonia solani", "value": 30, "unit": "%"}, {"measurement": "inhibition at 1.111 ppm", "setting": "Rhizoctonia solani", "value": 84, "unit": "%"}, {"measurement": "inhibition at 3.333 ppm", "setting": "Rhizoctonia solani", "value": 88, "unit": "%"}, {"measurement": "inhibition at 10 ppm", "setting": "Rhizoctonia solani", "value": 84, "unit": "%"}]}, {"smiles": "CC(C)(C)C(O)(CCc1ccc(Cl)cc1)Cn1cncn1", "note": "(stereo not shown) [Tebuconazole]", "values": [{"measurement": "% activity observed", "setting": "Pyrenophora graminea", "value": "54% and 89% and 74%"}, {"measurement": "inhibition at 0.041 ppm", "setting": "Pyrenophora graminea; [1]", "value": 17, "unit": "%"}, {"measurement": "inhibition at 0.123 ppm", "setting": "Pyrenophora graminea; [1]", "value": 48, "unit": "%"}, {"measurement": "inhibition at 0.37 ppm", "setting": "Pyrenophora graminea; [1]", "value": 57, "unit": "%"}, {"measurement": "inhibition at 1.111 ppm", "setting": "Pyrenophora graminea; [1]", "value": 77, "unit": "%"}, {"measurement": "inhibition at 3.333 ppm", "setting": "Pyrenophora graminea; [1]", "value": 87, "unit": "%"}, {"measurement": "inhibition at 10 ppm", "setting": "Pyrenophora graminea; [1]", "value": 94, "unit": "%"}, {"measurement": "% activity observed", "setting": "Pythium ultimum; 48 hrs", "value": "2% and 4% and 0%"}, {"measurement": "inhibition at 0.123 ppm", "setting": "Pythium ultimum; [2]", "value": 1, "unit": "%"}, {"measurement": "inhibition at 10 ppm", "setting": "Pythium ultimum; [2]", "value": 22, "unit": "%"}, {"measurement": "% activity observed", "setting": "Fusarium graminearum; 0.014 ppm applied alone", "value": "3% and 1%"}, {"measurement": "% activity observed", "setting": "Fusarium graminearum; 0.041 ppm applied alone", "value": "11% and 5% and 9%"}, {"measurement": "% activity observed", "setting": "Fusarium graminearum; 0.370 ppm applied alone", "value": "34% and 39%"}, {"measurement": "% activity observed", "setting": "Fusarium graminearum; 1.111 ppm applied alone", "value": "62% and 55%"}, {"measurement": "% activity observed", "setting": "Fusarium graminearum; 3.333 ppm applied alone", "value": 88, "unit": "%"}, {"measurement": "% activity observed", "setting": "Fusarium graminearum; 10.000 ppm applied alone", "value": "95% and 97%"}, {"measurement": "inhibition at 0.0137 ppm", "setting": "Fusarium graminearum; Fusarium graminearum, 48 h, read-out: % activity observed, 0.0137 ppm applied alone", "value": 0, "unit": "%"}, {"measurement": "inhibition at 0.0412 ppm", "setting": "Fusarium graminearum; Fusarium graminearum, 48 h, read-out: % activity observed, 0.0412 ppm applied alone", "value": 7, "unit": "%"}, {"measurement": "inhibition at 0.1235 ppm", "setting": "Fusarium graminearum; Fusarium graminearum, 48 h, read-out: % activity observed, 0.1235 ppm applied alone", "value": 16, "unit": "%"}, {"measurement": "inhibition at 0.37 ppm", "setting": "Fusarium graminearum; Fusarium graminearum, 48 h, read-out: % activity observed, 0.370 ppm applied alone", "value": 37, "unit": "%"}, {"measurement": "inhibition at 0.3704 ppm", "setting": "Fusarium graminearum; Fusarium graminearum, 48 h, read-out: % activity observed, 0.3704 ppm applied alone", "value": 33, "unit": "%"}, {"measurement": "inhibition at 1.111 ppm", "setting": "Fusarium graminearum; Fusarium graminearum, 48 h, read-out: % activity observed, 1.111 ppm applied alone", "value": 50, "unit": "%"}, {"measurement": "inhibition at 1.1111 ppm", "setting": "Fusarium graminearum; Fusarium graminearum, 48 h, read-out: % activity observed, 1.1111 ppm applied alone", "value": 66, "unit": "%"}, {"measurement": "inhibition at 3.333 ppm", "setting": "Fusarium graminearum; Fusarium graminearum, 48 h, read-out: % activity observed, 3.333 ppm applied alone", "value": 98, "unit": "%"}, {"measurement": "inhibition at 3.3333 ppm", "setting": "Fusarium graminearum; Fusarium graminearum, 48 h, read-out: % activity observed, 3.3333 ppm applied alone", "value": 94, "unit": "%"}, {"measurement": "inhibition at 10 ppm", "setting": "Fusarium graminearum; [3]", "value": 94, "unit": "%"}, {"measurement": "inhibition at 10 ppm", "setting": "Fusarium graminearum; Fusarium graminearum, 48 h, read-out: % activity observed, 10.000 ppm applied alone", "value": 100, "unit": "%"}, {"measurement": "% activity observed", "setting": "Gaeumannomyces graminis", "value": 100, "unit": "%"}, {"measurement": "inhibition at 0.041 ppm", "setting": "Gaeumannomyces graminis; [5]", "value": 16, "unit": "%"}, {"measurement": "inhibition at 0.123 ppm", "setting": "Gaeumannomyces graminis; [5]", "value": 64, "unit": "%"}, {"measurement": "inhibition at 0.37 ppm", "setting": "Gaeumannomyces graminis; [5]", "value": 97, "unit": "%"}, {"measurement": "inhibition at 1.111 ppm", "setting": "Gaeumannomyces graminis; [5]", "value": 98, "unit": "%"}, {"measurement": "inhibition at 3.333 ppm", "setting": "Gaeumannomyces graminis; [5]", "value": 98, "unit": "%"}, {"measurement": "inhibition at 10 ppm", "setting": "Gaeumannomyces graminis; [5]", "value": 96, "unit": "%"}, {"measurement": "inhibition at 0.014 ppm", "setting": "Ustilago nuda; [4]", "value": 0, "unit": "%"}, {"measurement": "inhibition at 0.041 ppm", "setting": "Ustilago nuda; [4]", "value": 0, "unit": "%"}, {"measurement": "inhibition at 10 ppm", "setting": "Ustilago nuda; [4]", "value": 26, "unit": "%"}, {"measurement": "inhibition at 3.333 ppm", "setting": "Rhizoctonia solani", "value": 96, "unit": "%"}, {"measurement": "inhibition at 10 ppm", "setting": "Rhizoctonia solani", "value": 100, "unit": "%"}, {"measurement": "% activity observed", "setting": "Monographella nivalis", "value": 6, "unit": "%"}, {"measurement": "inhibition at 0.014 ppm", "setting": "Monographella nivalis; [6]", "value": 9, "unit": "%"}, {"measurement": "inhibition at 0.041 ppm", "setting": "Monographella nivalis; [6]", "value": 3, "unit": "%"}, {"measurement": "inhibition at 1.111 ppm", "setting": "Monographella nivalis; [6]", "value": 0, "unit": "%"}, {"measurement": "inhibition at 3.333 ppm", "setting": "Monographella nivalis; [6]", "value": 62, "unit": "%"}, {"measurement": "inhibition at 10 ppm", "setting": "Monographella nivalis; [6]", "value": 94, "unit": "%"}]}]}
